In data set [1] the test system is T. vaginalis 30001. Description: In vitro anti-T. vaginalis activity (50% inhibition of growth). Format: cell-based, Trichomonas vaginalis. Particulars: for IC50: Trichomonas vaginalis. As to the method: The activity of these compounds against Giardia lamblia and Trichomonas vaginalis are shown by the following test:
(§1) About 1.0-2.0 ml of a nutrient medium, for example, the modified Diamond's TPS medium at pH 7.05, together with about 10% by volume of heat-inactivated serum and about 1% by volume of antibiotic-antimycotic solution is placed in each well of a multiwell plate. To this mixture, an aliquot of a suspension of G. lamblia cells containing about […] is added. Subsequently, each well is inoculated with a known concentration of one of the active compounds, for example, 1-(3,4-dichlorocinnamylideneamino)-3-(4-cyanobenzylideneamino)guanidine. The multiwell plate containing the individual culture samples is incubated under anaerobic conditions at about 37° C. for about 16-24 hrs. The number of viable cells remaining in each well are then counted, such as with a hemacytometer. The percentage of survival is determined by comparison to controls inoculated with DMSO (dimethylsulfoxide) and the effective concentration (in parts per million) for 50% inhibition of growth (ED50) is determined. It is established that the lower the number of the value of ED50, the higher the activity of the active compound.
Employing essentially the same method of Example 1, centrifuged cells of T. vaginalis 30001 are inoculated with 1-(4-chlorocinnamylideneamino)-3-(3,4-dichlorobenzylideneamino)guanidine at 37° C. for 24 hours.
Similarly, previously described compounds (2) to (10) and the pharmaceutically acceptable salts thereof an active anti- T. vaginalis agents as shown in Table 1.

The test system of data set [2] is Giardia lamblia. The data set is described as follows: In vitro anti-G. lamblia activity (50% inhibition of growth, viable cell count). The format is cell-based. Particulars: Giardia duodenalis, 37° C., anaerobic, about 16-24 hrs (Example 1: 24 hours), vs DMSO controls, read-out: Anti-G. lamblia ED50. The method, then:
as §1
In each well of a multiwell plate is placed 1.4 ml of media mix containing Diamond's TPS medium (see Table 2) at pH 7.05, 10% by volume of heat-inactivated fetal bovine serum, and 1% by volume of an antibiotic-antimycotic solution (see Table 3). A suspension of Giardia lamblia is centrifuged at 2,500 xg. for 6 minutes. The cells are resuspended in a small volume of the Diamond's medium, counted, and each well inoculated with approximately 10^6 organisms. A stock solution of 1-(4-chlorocinnamylideneamino)-3-(3,4-dichlorobenzylideneamino)guanidine in dimethylsulfoxide is made at a concentration of 150 μg/ml. The wells are then inoculated with various concentrations of the drug. The plates are incubated for 24 hours at 37° C. in an anaerobic Gas Pak jar. After 24 hours of incubation each well is mixed and counted for viable organisms using a hemacytometer. The percentage of survival is determined by comparing the treated wells to controls treated with dimethylsulfoxide.
Employing substantially the similar procedure as described in Example 1 but substituting for 1-(4-chlorocinnamylideneamino)-3-(3,4-dichlorobenzylideneamino)guanidine used therein other active compounds, there are obtained similar results indicating the anti- G. lamblia activities of the compounds included above in Table 1.

Data set [3] deals with Giardia lamblia. Particulars: New York Times, June 10, 1980; cited from earlier work.
For data set [4] the following is noted: cited from earlier work.
Data set [5] concerns animals. The settings on record: cited from earlier work.
The subject of data set [6] is Trichomonas vaginalis. The settings on record: has been reported; cited from earlier work.
Where [7] appears, read: in vitro, 37° C., 24 hours, Table 1, read-out: Anti-T. vaginalis ED50.

Molecules are shown by their SMILES. In brackets after ≈: the same amount, converted by molar mass. Like-named read-outs stand apart in the source and are kept apart here.

Consider `N=C(NN=CC=Cc1ccc(Cl)cc1)NN=Cc1ccc(Cl)c(Cl)c1` [(1), 1-(4-chlorocinnamylideneamino)-3-(3,4-dichlorobenzylideneamino)guanidine], for which the IC50 in data set [1] (Example 2, 37° C. for 24 hours, unit inferred, read-out: ED50 value, anti-T. vaginalis) is 2.25 µg/mL (≈ 5.7 µM); in data set [2], 1.1 µg/mL (≈ 2.79 µM). The “anti-T. vaginalis activity in words” value in data set [1] (in vitro, method of Example 1/2) is listed as “effective anti- T. vaginalis agent”.
Consider `CN(N=Cc1ccc(Cl)cc1)C(=N)NN=CC=Cc1ccc(C(F)(F)F)cc1` [(2), 1-(4-trifluoromethylcinnamylideneamino)-3-(4-chlorobenzylideneamino)-3-methylguanidine], for which the IC50 in data set [1] (setting [7]) is 2.75 µg/mL (≈ 6.74 µM); in data set [2], 0.8 µg/mL (≈ 1.96 µM).
The like results for `CN(N=Cc1ccc(Cl)cc1)C(=N)NN=CC=Cc1ccc(C#N)cc1` [(3), 1-(4-cyanocinnamylideneamino)-3-(4-chlorobenzylideneamino)-3-methyl-guanidine] were, in that order, 3.25 µg/mL (≈ 8.91 µM) and 0.85 µg/mL (≈ 2.33 µM).
In the case of `CN(N=Cc1ccc(Cl)cc1)C(=N)NN=CC=Cc1ccc(Cl)c(Cl)c1` [(4), 1-(3,4-dichlorocinnamylideneamino)-3-(4-chlorobenzylideneamino)-3-methyl-guanidine], the IC50 stood at 2.5 µg/mL (≈ 6.12 µM) in data set [1] (setting [7]) and 0.58 µg/mL (≈ 1.42 µM) in data set [2].
Turning to `CN(N=Cc1ccc(C(F)(F)F)cc1)C(=N)NN=CC=Cc1ccc(C#N)cc1` [(5), 1-(4-cyanocinnamylideneamino)-3-(4-trifluoromethylbenzylideneamino)-3-methyl-guanidine], the IC50 in data set [1] (setting [7]) worked out at 3.25 µg/mL (≈ 8.16 µM); in data set [2], 1.5 µg/mL (≈ 3.77 µM).
Regarding `CN(N=Cc1ccc(C(F)(F)F)cc1)C(=N)NN=CC=Cc1ccc(Cl)c(Cl)c1` [(6), 1-(3,4-dichlorocinnamylideneamino)-3-(4-trifluoromethylbenzylideneamino)-3-methyl-guanidine], the IC50 in data set [1] (setting [7]) was 2.67 µg/mL (≈ 6.04 µM); in data set [2] it was 0.73 µg/mL (≈ 1.65 µM).
The corresponding values for `N#Cc1ccc(C=NNC(=N)NN=CC=Cc2ccc(Cl)c(Cl)c2)cc1` [(7), 1-(3,4-dichlorocinnamylideneamino)-3-(4-cyanobenzylideneamino)guanidine] are 1 µg/mL (≈ 2.6 µM) and 0.57 µg/mL (≈ 1.48 µM).
For the molecule `CN(N=Cc1ccc(Cl)cc1)C(=N)NN=CC=Cc1ccc(Cl)cc1` [(8), 1-(4-chlorocinnamylideneamino)-3-(4-chlorobenzylideneamino)-3-methyl-guanidine], the results for the IC50 in data set [1] (setting [7]) and in data set [2] were 2.67 µg/mL (≈ 7.13 µM) and 1.4 µg/mL (≈ 3.74 µM), respectively.
The like results for `CN(N=Cc1ccc(C(F)(F)F)cc1)C(=N)NN=CC=Cc1ccc(Cl)cc1` [(9), 1-(4-chlorocinnamylideneamino)-3-(4-trifluoromethylbenzylideneamino)-3-methyl-guanidine] were, in that order, 2.38 µg/mL (≈ 5.84 µM) and 1.3 µg/mL (≈ 3.19 µM).
The like results for `CN(N=Cc1ccc([N+](=O)[O-])cc1)C(=N)NN=CC=Cc1ccc(C(F)(F)F)cc1` [(10), 1-(4-trifluoromethylcinnamylideneamino)-3-(4-nitrobenzylideneamino)-3-methyl-guanidine] were, in that order, 3.25 µg/mL (≈ 7.77 µM) and 1 µg/mL (≈ 2.39 µM).
For `CCN(CC)CCCC(C)Nc1c2ccc(Cl)cc2nc2ccc(OC)cc12` (stereo not shown) [Atabrine], in data set [3], the treatment of giardiasis entry is given as “successfully treated”. Besides, the adverse side effects result in data set [4] (in vivo) is listed as “known to cause adverse side effects”.
For the molecule `Cc1ncc([N+](=O)[O-])n1CCO` [Flagyl (metronidazole), metronidazole], the carcinogenicity entry in data set [5] is on record as “carcinogenic in animals”. Also, the values for the IC50 in data set [1] (setting [7]) and in data set [2] were less than 1 µg/mL and 6.2 µg/mL (≈ 36.2 µM), respectively. Moreover, in data set [3], the treatment of giardiasis entry is “successfully treated”. The therapy of trichomoniasis result in data set [6] was “Successful therapy”. Moreover, the adverse side effects entry in data set [4] (in vivo) was “known to cause adverse side effects”.
In the case of `O=C1OCCN1/N=C/c1ccc([N+](=O)[O-])o1` [furazolidone], the treatment of giardiasis result in data set [3] is recorded as “successfully treated”. Also, the adverse side effects entry in data set [4] (New York Times, June 10, 1980) was “known to cause adverse side effects”.

Source of the values: US4321274A, “Substituted 1-(cinnamylideneamino)-3-benzyli-deneaminoguanidines active against Giardia lamblia and Trichomonas vaginalis” (priority 1980, dated 1982).
